Tested on: Coptotermes acinaciformis
Assay: ensis mean mass loss test: laboratory termite bioassay of treated Pinus radiata specimens, eight weeks
Assay type: in vivo
Conditions: 8 weeks exposure, mean of 6 replicates, SE in parentheses
Description: Pinus radiata D. Don (Radiata pine) specimens (20×20×10 mm long) were cut from the sapwood of several pruned, fast-grown trees that had been harvested from the northern plantation forests of […], Australia. These samples are referred to as “ensis samples.” Trees were 20 to 24 years old. Specimens were pooled and randomly allocated into treatment groups. Prior to treatment, specimens were conditioned to 9.5% moisture content (m.c.). […] The solutions were used immediately. The following impregnation protocol was used: (the “ensis impregnation protocol”). Specimens were treated by drawing a vacuum of -95 kPa for 30 minutes, introducing the preservative solution while under vacuum, and immediately releasing the vacuum. Specimens were allowed to absorb the solution for 30 minutes atmospheric pressure. Each specimen was weighed before and immediately after treatment to determine retention. The specimens closest to the desired retentions were selected. Prior to bioassay against termites, all test specimens from each treatment were artificially weathered to H2 conditions by vacuum oven drying for three days at 40° C. and -95 kPa. After removal from the vacuum ovens, the specimens were cooled in a desiccator before being weighed to obtain initial masses. At each stage, care was taken to ensure that specimens of different treatments were kept separate. The weathering step removed from the specimens any volatiles that may be deleterious to termite health and vigor, as well as to provide artificial ageing. The test specimens were subjected to bioassay in accordance with the minimum requirements specified for H2 conditions in the Australasian Wood Preservation Committee Protocols for Assessment of Wood Preservatives (AWPC 1997), using one species of subterranean termite, Coptotermes acinaciformis. C. acinaciformis is widely distributed throughout mainland Australia and is responsible for greater economic loss that all other species of Australian termites combined (Gay and Calaby 1970). Only fresh, field collected stocks of termites were used for the bioassay. These termites were collected from the Northern Territory, transported by air to the Ensis Clayton laboratory and used promptly. Six replicate test specimens of each treatment were exposed to termites. A further three specimens were designated as vacuum oven controls. The following testing protocol was used (the “[…] loss test”). A single test specimen was centered on a 29 mm plastic disc to stop diffusion of boron out of the specimen. They were centrally placed on a moist matrix of C. acinaciformis finely ground mound material (20g, 100% m.c.) within a 250 ml glass jar (96 mm high, 62 mm diameter). Five grams of C. acinaciformis were added to each jar. A plastic lid, with a central 9 mm diameter ventilator, closed the jar (FIG. 1). The duration of the bioassay was eight weeks. The bioassay was conducted in an insectary maintained at 27° C., 70% RH. […] At the conclusion of the bioassay, test specimens were removed from the jars and cleaned. The test specimens, as well as vacuum oven controls, were then vacuum oven dried under the same conditions that were used to obtain the initial masses (i.e., 3 days at 40° C. and -95 kPa). After cooling and weighing the specimens, the final and initial masses were compared to obtain mass loss. If necessary, the mass loss of specimens exposed to termites was adjusted to accommodate any changes recorded in the vacuum oven controls.

Row | Compound | Mean mass loss (target retention 2.5 g/m^3 bifenthrin) | Mean mass loss (target retention 5.0 g/m^3 bifenthrin) | Mean mass loss (target retention 7.5 g/m^3 bifenthrin) | Mean mass loss (target retention 0.1% BAE (% m/m in OD wood)) | Mean mass loss (target retention 0.2% BAE) | Mean mass loss (target retention 0.5% BAE)
1 | Cc1c(COC(=O)[C@@H]2[C@H](/C=C(\Cl)C(F)(F)F)C2(C)C)cccc1-c1ccccc1 (racemic) [bifenthrin] | 15.6 (2.9) % | 4.8 (0.5) % | 4.2 (0.4) % |  |  | 
2 | O.O.O.O.O=BOB1OB(OB=O)OB2OB([O-])OB([O-])OB(O1)O2.[Na+].[Na+] [BAE, disodium octaborate tetrahydrate] |  |  |  | 93.5 (3.9) % | 30.9 (5.3) % | 48.6 (12.7) %
